Source: patent publication US10696639B2, “Heterocyclic compounds as HIV protease inhibitors” (Merck Sharp & Dohme Corp., priority 2016, dated 2020)

Target: T1, wild-type HIV-1 protease (Human immunodeficiency virus type 1 group M subtype B, UniProt P04585)
T1 construct: Escherichia coli expressed wild-type HIV-1 protease protein; made in house; host or cells: Escherichia coli
Assay: Assay for Inhibition of Microbial Expressed HIV Protease
Type: biochemical
Conditions: E. coli expressed wild-type HIV-1 protease, peptide substrate cleavage, LC-MS readout; mean of at least two independent experiments; read-out: HIV Pr Enzyme HIV1 PR IC50
Procedure: Assay for Inhibition of Microbial Expressed HIV Protease
Inhibition of Escherichia coli expressed wild-type HIV-1 protease protein was carried out with a peptide substrate [Val-Ser-Gln-Asn-(βnaphtyl)Ala-Pro-Ile-Val]. The inhibitor compound was preincubated with HIV-1 protease enzyme in assay buffer (50 mM sodium acetate, pH 5.5, 100 mM NaCl, and 0.1% BSA) for 30 minutes at room temperature. Peptide substrate was added to […] in a total volume of 20 μL containing 20 pM HIV-1 protease (final) after which the reaction was incubated for 1 hour at 30° C. The reaction was quenched by the addition of formic acid and HIV protease inhibitor indinavir to 0.012% and 150 nM final concentrations, respectively. Product formation was determined after separation of product and substrate on a ZORBAX Eclipse XDB-C18 column (Aligent Technologies, Santa Clara, Calif., USA) connected to an API 4000™ mass spectrometer (AB Sciex, Pte. Ltd., Concord Ontario, Canada) with multiple reaction monitoring (transitions were 644.5/428.9 and 615.4/422.2 (M1/M3) for product and indinavir respectively). The extent of inhibition of the reaction was determined from the peak area of the products. Analysis of the products, independently synthesized, provided quantitation standards and confirmation of the product composition.

| SMILES | IC50 [µM] |
| --- | --- |
| COC(=O)N[C@@H](Cc1ccc(OC)cc1)C(=O)N[C@@H](C)CCCN1C(=N)N[C@](CC(C)C)(c2ccccc2)C1=O [Example 1, N-{(1S)-4-[(4R)-2-imino-4-(2-methylpropyl)-5-oxo-4-phenylimidazolidin-1-yl]-1-methylbutyl}-N-alpha-(methoxycarbonyl)-O-methyl-L-tyrosinamide] | 0.018 |
| N=C1NC(c2ccccc2)(c2ccccc2)C(=O)N1CCCCNC(=O)[C@@H](N)Cc1ccccc1 [Example 2, N-[4-(2-imino-5-oxo-4,4-diphenylimidazolidin-1-yl)butyl]-L-phenylalaninamide] | 0.011 |
| CC(=O)N[C@@H](Cc1ccccc1)C(=O)NCCCCN1C(=N)NC(c2ccccc2)(c2ccccc2)C1=O [Example 3, N-alpha-acetyl-N-[4-(2-imino-5-oxo-4,4-diphenylimidazolidin-1-yl)butyl]-L-phenylalaninamide] | 0.008 |
| COC(=O)N[C@@H](Cc1ccccc1)C(=O)NCCCCN1C(=N)NC(c2ccccc2)(c2ccccc2)C1=O [Example 4, N-[4-(2-imino-5-oxo-4,4-diphenylimidazolidin-1-yl)butyl]-N-alpha-(methoxycarbonyl)-L-phenylalaninamide] | 0.01 |
| N=C1NC(c2ccccc2)(c2ccccc2)C(=O)N1CCCCNC(=O)[C@@H](N)CCc1ccccc1 [Example 5, (2S)-2-amino-N-[4-(2-imino-5-oxo-4,4-diphenylimidazolidin-1-yl)butyl]-4-phenylbutanamide] | 0.006 |
| CCOC(=O)N[C@@H](Cc1ccccc1)C(=O)NCCCCN1C(=N)NC(c2ccccc2)(c2ccccc2)C1=O [Example 6, N-alpha-(ethoxycarbonyl)-N-[4-(2-imino-5-oxo-4,4-diphenylimidazolidin-1-yl)butyl]-L-phenylalaninamide] | 0.004 |
| COC(=O)N[C@@H](Cc1ccccc1)C(=O)N[C@@H](C)CCCN1C(=N)NC(c2ccccc2)(c2ccccc2)C1=O [Example 7, N-[(1S)-4-(2-imino-5-oxo-4,4-diphenylimidazolidin-1-yl)-1-methylbutyl]-N-alpha-(methoxycarbonyl)-L-phenylalaninamide] | 0.002 |
| COC(=O)N[C@@H](Cc1cccnc1)C(=O)NCCCCN1C(=N)NC(c2ccccc2)(c2ccccc2)C1=O [Example 8, methyl [(1S)-2-{[4-(2-imino-5-oxo-4,4-diphenylimidazolidin-1-yl)butyl]amino}-2-oxo-1-(pyridin-3-ylmethyl)ethyl]carbamate] | 0.012 |
| N=C1NC(c2ccccc2)(c2ccccc2)C(=O)N1CCCCNC(=O)[C@@H](N)Cc1cccnc1 [Example 9, N-[4-(2-imino-5-oxo-4,4-diphenylimidazolidin-1-yl)butyl]-3-pyridin-3-yl-L-alaninamide] | 0.031 |
| N=C1NC(c2ccccc2)(c2ccccc2)C(=O)N1CCCCNC(=O)[C@@H](N)Cc1ccncc1 [Example 10, N-[4-(2-imino-5-oxo-4,4-diphenylimidazolidin-1-yl)butyl]-3-pyridin-4-yl-L-alaninamide] | 0.034 |
| COC(=O)N[C@@H](Cc1ccccc1)C(=O)N[C@@H](C)CCCN1C(=N)NC(c2ccc(F)cc2)(c2ccc(F)cc2)C1=O [Example 11, N-{(1S)-4-[4,4-bis(4-fluorophenyl)-2-imino-5-oxoimidazolidin-1-yl]-1-methylbutyl}-N-alpha-(methoxycarbonyl)-L-phenylalaninamide] | 0.007 |
| COC(=O)N[C@@H](Cc1ccccn1)C(=O)NCCCCN1C(=N)NC(c2ccccc2)(c2ccccc2)C1=O [Example 12, methyl [(1S)-2-{[4-(2-imino-5-oxo-4,4-diphenylimidazolidin-1-yl)butyl]amino}-2-oxo-1-(pyridin-2-ylmethyl)ethyl]carbamate] | 0.021 |
| COC(=O)N[C@@H](Cc1ccncc1)C(=O)NCCCCN1C(=N)NC(c2ccccc2)(c2ccccc2)C1=O [Example 13, methyl [(1S)-2-{[4-(2-imino-5-oxo-4,4-diphenylimidazolidin-1-yl)butyl]amino}-2-oxo-1-(pyridin-4-ylmethyl)ethyl]carbamate] | 0.007 |
| N=C1NC(c2ccccc2)(c2ccccc2)C(=O)N1CCCCCNC(=O)[C@@H](N)Cc1ccccc1 [Example 14, N-[5-(2-imino-5-oxo-4,4-diphenylimidazolidin-1-yl)pentyl]-L-phenylalaninamide] | 0.067 |
| COC(=O)N[C@@H](Cc1ccccc1)C(=O)NCCCCCN1C(=N)NC(c2ccccc2)(c2ccccc2)C1=O [Example 15, N-[5-(2-imino-5-oxo-4,4-diphenylimidazolidin-1-yl)pentyl]-N-alpha-(methoxycarbonyl)-L-phenylalaninamide] | 0.098 |
| CC(C)CC1(c2ccccc2)NC(=N)N(CCCCNC(=O)[C@@H](N)Cc2ccccc2)C1=O (stereo partly drawn) [Example 16, N-{4-[2-imino-4-(2-methylpropyl)-5-oxo-4-phenylimidazolidin-1-yl]butyl}-L-phenylalaninamide] | 0.019 |
| COC(=O)N[C@@H](Cc1ccccc1)C(=O)NCCCCN1C(=N)NC(CC(C)C)(c2ccccc2)C1=O (stereo partly drawn) [Example 17, N-{4-[2-imino-4-(2-methylpropyl)-5-oxo-4-phenylimidazolidin-1-yl]butyl}-N-alpha-(methoxycarbonyl)-L-phenylalaninamide] | 0.02 |
| CC(C)CCC1(c2ccccc2)NC(=N)N(CCCCNC(=O)[C@@H](N)Cc2ccccc2)C1=O (stereo partly drawn) [Example 18, N-{4-[2-imino-4-(3-methylbutyl)-5-oxo-4-phenylimidazolidin-1-yl]butyl}-L-phenylalaninamide] | 0.025 |
| COC(=O)N[C@@H](Cc1ccccc1)C(=O)NCCCCN1C(=N)NC(CCC(C)C)(c2ccccc2)C1=O (stereo partly drawn) [Example 19, N-{4-[2-imino-4-(3-methylbutyl)-5-oxo-4-phenylimidazolidin-1-yl]butyl}-N-alpha-(methoxycarbonyl)-L-phenylalaninamide] | 0.024 |
| COC(=O)N[C@@H](Cc1ccncc1)C(=O)NCCCCCN1C(=N)NC(c2ccccc2)(c2ccccc2)C1=O [Example 20, methyl [(1S)-2-{[5-(2-imino-5-oxo-4,4-diphenylimidazolidin-1-yl)pentyl]amino}-2-oxo-1-(pyridin-4-ylmethyl)ethyl]carbamate] | 0.091 |
| COC(=O)N[C@@H](Cc1ccncc1)C(=O)NCCCCN1C(=N)NC(CC(C)C)(c2ccccc2)C1=O (stereo partly drawn) [Example 21, methyl [(1S)-2-({4-[2-imino-4-(2-methylpropyl)-5-oxo-4-phenylimidazolidin-1-yl]butyl}amino)-2-oxo-1-(pyridin-4-ylmethyl)ethyl]carbamate] | 0.046 |
| COC(=O)N[C@@H](Cc1ccncc1)C(=O)NCCCCN1C(=N)NC(CCC(C)C)(c2ccccc2)C1=O (stereo partly drawn) [Example 22, methyl [(1S)-2-({4-[2-imino-4-(3-methylbutyl)-5-oxo-4-phenylimidazolidin-1-yl]butyl}amino)-2-oxo-1-(pyridin-4-ylmethyl)ethyl]carbamate] | 0.06 |
| CC1(OC(=O)N[C@@H](Cc2ccccc2)C(=O)NCCCCN2C(=N)NC(c3ccccc3)(c3ccccc3)C2=O)CC1 [Example 23, N-[4-(2-imino-5-oxo-4,4-diphenylimidazolidin-1-yl)butyl]-N-alpha-{[(1-methylcyclopropyl)oxy]carbonyl}-L-phenylalaninamide] | 0.016 |
| N#Cc1cccc(C[C@H](N)C(=O)NCCCCN2C(=N)NC(c3ccccc3)(c3ccccc3)C2=O)c1 [Example 24, 3-cyano-N-[4-(2-imino-5-oxo-4,4-diphenylimidazolidin-1-yl)butyl]-L-phenylalaninamide] | 0.022 |
| COC(=O)N[C@@H](Cc1ccc(F)cc1)C(=O)NCCCCN1C(=N)NC(c2ccccc2)(c2ccccc2)C1=O [Example 25, 4-fluoro-N-[4-(2-imino-5-oxo-4,4-diphenylimidazolidin-1-yl)butyl]-N-alpha-(methoxycarbonyl)-L-phenylalaninamide] | 0.017 |
| CC(C)OC(=O)N[C@@H](Cc1ccccc1)C(=O)NCCCCN1C(=N)NC(c2ccccc2)(c2ccccc2)C1=O [Example 26, N-[4-(2-imino-5-oxo-4,4-diphenylimidazolidin-1-yl)butyl]-N-alpha-[(1-methylethoxy)carbonyl]-L-phenylalaninamide] | 0.027 |
| COC(=O)N[C@@H](Cc1ccc(F)cc1)C(=O)N[C@@H](C)CCCN1C(=N)N[C@](CC(C)C)(c2ccccc2)C1=O [Example 27, 4-fluoro-N-{(1S)-4-[(4R)-2-imino-4-(2-methylpropyl)-5-oxo-4-phenylimidazolidin-1-yl]-1-methylbutyl}-N-alpha-(methoxycarbonyl)-L-phenylalaninamide] | 0.027 |
| COC(=O)N[C@@H](Cc1ccccc1)C(=O)N[C@@H](C)CCCN1C(=N)N[C@](CC(C)C)(c2ccccc2)C1=O [Example 28, N-{(1S)-4-[(4R)-2-imino-4-(2-methylpropyl)-5-oxo-4-phenylimidazolidin-1-yl]-1-methylbutyl}-N-alpha-(methoxycarbonyl)-L-phenylalaninamide] | 0.009 |
| COC(=O)N[C@@H](Cc1ccccc1)C(=O)NC(CCCN1C(=N)N[C@](CC(C)C)(c2ccccc2)C1=O)CC1CC1 (stereo partly drawn) [Example 29, N-{1-(cyclopropylmethyl)-4-[(4R)-2-imino-4-(2-methylpropyl)-5-oxo-4-phenylimidazolidin-1-yl]butyl}-N-alpha-(methoxycarbonyl)-L-phenylalaninamide] | 0.033 |
